# Source: patent publication US5652222A, “Selective inhibition of leukemic cell proliferation by bcr-abl antisense oligonucleotides” (Temple University-of The Commonwealth System of Higher …, priority 1993, dated 1997)
# “Also recorded” adds a separate entry of the source.
# Columns and labels:
# bcr-abl transcripts = assay: bcr-abl transcript in residual colonies (RT-PCR); format: cell-based, human; conditions: colonies arising from mixed cell populations of Example 3
# Method: To provide unambiguous evidence of the elimination of Philadelphia chromosome blast cells, residual cells from Example 3 were evaluated for the expression of bcr-abl transcripts, since the levels of this transcript should reflect the number of surviving leukemia cells. For this purpose, total RNA was isolated from a pool of colonies from Example 3, and the levels of bcr-abl transcripts were evaluated. Levels of β2 -microglobulin transcript were also determined as a control. The β2 -microglobulin gene is expressed independent of cell cycle.
# Accordingly, bcr-abl and β2 -microglobulin transcripts were reverse-transcribed and amplified in the presence of specific primers and Taq polymerase as described by Rappollee, Science 241, 708-712 (1988). The amplification products were separated on a 2% agarose gel and transferred to a nitrocellulose filter, which was hybridized with a synthetic 40-nucleotide c-abl fragment and a 40-nucleotide β2 -microglobulin fragment and labeled with [γ-^32 P]-ATP and polynucleotide kinase. The c-abl probe recognizes the amplified 257-nucleotide sequence of FIG. 1, which contains the L-6 type bcr-abl junction. The β2 -microglobulin probe recognizes the 195-nucleotide sequence contained within 5' and 3' β2 -microglobulin primers (Id.; Suggs et al., Proc. Natl. Acad. Sci. U.S.A. 78, 6613 (1981)).
# [1] = system: 1:1 mixtures of normal marrow progenitors and CML blast crisis cells; assay: CFU-GM + CFU-L colony formation of 1:1 mixtures of normal marrow progenitors and CML blast crisis cells; format: cell-based, human; conditions: Table 3; 1:1 mixture; 40 μg/ml at 0 h, 20 μg/ml 18 h later; 12 days; mean ± SD; control 978 ± 24
# From the text: Normal bone marrow mononuclear cells (MNC) were obtained by aspiration from consenting volunteers and enriched for hematopoietic progenitors as previously reported by numerous investigators (Zamecnick et al., Proc. Natl. Acad. Sci. U.S.A. 83, 4143-4147 (1986); Caracciolo et al., J. Clin. Invest. 85, 55-61 (1990)). In brief, marrow cells were subjected to Ficoll-Hypaque density gradient sedimentation and then depleted of adherent monocyte-macrophage and T-lymphocytes by adherence to plastic Petri dishes and rosetting with neuraminidase-treated sheep red blood cells, respectively. Philadelphia chromosome-positive blast cells were isolated by Ficoll-Hypaque density gradient sedimentation from a CML patient in blast crisis (L-6 type junction). […] The residual non-blast cells had the morphological appearance of small lymphocytes. 25,000 MNC and 25,000 CML blast cells were combined and incubated with bcr-abl breakpoint-Specific antisense oligomer (SEQ ID NO:3) (40 μg/ml at h 0; 20 μg/ml 18 hours later) or with a 4 nucleotide mismatch bcr-abl antisense oligomer (SEQ ID NO:2) (40 μg/ml at 0 h; 20 μg/ml 18 hours later) or left untreated. […] At the end of the incubation period colonies were counted. […]
# [2] = system: CML blast crisis cells (L-6 type junction); assay: CFU-L colony formation of CML blast crisis cells (Example 3); format: cell-based, human
# From the text: Normal bone marrow mononuclear cells (MNC) were obtained by aspiration from consenting volunteers and enriched for hematopoietic progenitors as previously reported by numerous investigators (Zamecnick et al., Proc. Natl. Acad. Sci. U.S.A. 83, 4143-4147 (1986); Caracciolo et al., J. Clin. Invest. 85, 55-61 (1990)). In brief, marrow cells were subjected to Ficoll-Hypaque density gradient sedimentation and then depleted of adherent monocyte-macrophage and T-lymphocytes by adherence to plastic Petri dishes and rosetting with neuraminidase-treated sheep red blood cells, respectively. Philadelphia chromosome-positive blast cells were isolated by Ficoll-Hypaque density gradient sedimentation from a CML patient in blast crisis (L-6 type junction). […] The residual non-blast cells had the morphological appearance of small lymphocytes. 25,000 MNC and 25,000 CML blast cells were combined and incubated with bcr-abl breakpoint-Specific antisense oligomer (SEQ ID NO:3) (40 μg/ml at h 0; 20 μg/ml 18 hours later) or with a 4 nucleotide mismatch bcr-abl antisense oligomer (SEQ ID NO:2) (40 μg/ml at 0 h; 20 μg/ml 18 hours later) or left untreated. Four hours after the second addition of oligonucleotides to the cultures, cells were seeded into duplicate methylcellulose dishes containing IL-3 (20 U/ml) and GM-CSF (5 ng/ml) and allowed to grow for an additional 12 days. At the end of the incubation period colonies were counted.
# The data is shown in Table 3, below, wherein values represent mean ± standard deviation of duplicate control cultures (no oligonucleotide added) and duplicate experimental cultures from two separate experiments. Colony forming unit-granulocyte macrophage (CFU-GM)-derived colonies consisted of 50 or more cell aggregates, while CFU-GM-derived clusters were defined as aggregates of between 4 and 40 cells. These are normal hematopoietic colonies derived from progenitors with the capability to differentiate along the granulocytic and macrophage lineages. […]
# [3] = system: bcr-abl (b2/a2) transcripts; assay: RT-PCR of bcr-abl transcripts in tissues of leukemic SCID mice; format: in vivo, SCID mice (human leukemic cells)
# Method: According to a third assay, the extent of leukemic disease was assessed by chain RT-PCR to monitor the expression of b2/a2 transcripts (assay sensitivity=[…]) in total RNA isolated from bone marrow cells, splenocytes, peripheral blood leukocytes, liver, lung and brain tissues. Depending on the number of BV173 cells injected, various numbers of leukemic cells were detected by clonogenic assay and RT-PCR in murine tissues, 3 and 6 weeks after injection. A few days before the expected death of leukemic SCID mice, approximately 80, 65, and 10% cALLA-positive cells were detected in bone marrow cells, splenocytes and peripheral blood leukocytes, respectively.
# (§1) To determine whether synthetic phosphorothioate oligodeoxynucleotides targeted against the bcr-abl junction of […] cells would modify the disease process in SCID mice. SCID mice were injected with 10^6 BV173 cells. The mice then received 1 mg of sense (ATCAATAAGG AAGCCCTTCAGCG, SEQ ID NO:34) or antisense ([…] ATTGAT, SEQ ID NO:29) b2/a2 bcr-abl phosphorothioate oligodeoxynucleotides (pyrogen leven <1 Eu/mg; 0.2 ml in Iscove modified Dulbecco medium in 5-10 seconds) intravenously for each of 9 consecutive days, beginning either 7 or 21 days after introducing 10^6 BV173 cells. Control mice received the diluent (iscove's modified Dulbecco medium) only. These time points approximate distinct disease stages in humans.
# At 7 (+7) and 21 (+21) days after injecting SCID mice with 10^6 BV173 cells, single cell suspensions were prepared from various tissues. After lysing red cells with 0.83% NH4 Cl buffered with 0.17 mM Tris-HCl, pH 7.4, total RNA was extracted as described (Chomczynski and Sacchi, Anal. Biochem. 162, 156 (1987)) and the suspension was divided into two equal aliquots. Bcr-abl and β-actin transcripts were reverse-transcribed and amplified with specific primers and Taq polymerase as described by Szczylik et al., Science 253, 562 (1991). Amplification products were separated on a 2% agarose gel, transferred to a nitrocellulose filter and hybridized with a synthetic 40-base c-abl fragment or 20-base β-actinfragment end-labeled with [γ^32 -P]-ATP and polynucleotide kinase. The c-abl probe recognizes an amplified 257-bp sequence containing the bcr-abl junction: the β-actin probe recognizes a 209-bp fragment, contained within the 5' and 3' β-actin primers (Tokunaga et al., Nucleic Acids Res. 14, 2829 (1986)).
# BV173 cells = assay: Macroscopic examination / disease state of leukemic SCID mice; format: in vivo, SCID mice (human leukemic cells)
# Method: Injection of the mice with BV173 cells induces a disease closely resembling that in human leukemia patients.
# as §1
Substance,bcr-abl transcript in RNA from colonies (bcr-abl transcripts),"Colonies or Clusters, CFU-GM + CFU-L [1]","Colonies or Clusters, CFU-L (colonies formed from CML blast crisis cells) ([2]; Table 3, 40 μg/ml at 0 h, 20 μg/ml 18 h later, 12 days, mean ± SD, control 806 ± 70)",number of colonies arising from the CML blast crisis cells (CFU-L) ([2]; after twelve days in culture),"bcr-abl transcripts in tissues ([3]; from day +7, 12 days after last treatment (4 weeks), blood, spleen, bone marrow, liver, lung, brain)","bcr-abl (b2/a2) transcripts in tissues ([3]; from day +7, 26 days after last treatment (6 weeks), blood leukocytes, spleen, bone marrow, liver, lung, brain)","bcr-abl transcripts in tissues ([3]; from day +21, 12 days after last treatment (6 weeks), blood, spleen, bone marrow, liver, lungs, brain)","bcr-abl transcripts in tissues ([3]; from day +21, 26 days after treatment (8 weeks))",evidence of active leukemic disease process (BV173 cells; 1 mg/mouse x9 i.v. from day 7 or 21),"macroscopic examination: leukemic nodules in liver and kidneys (BV173 cells; from day +7, 26 days after last treatment (6 weeks))","splenomegaly and leukemic metastases in the liver (BV173 cells; from day +21, 12 days after last treatment (6 weeks))","macroscopic examination: metastases / leukemic nodules in liver, kidneys, splenomegaly (BV173 cells; from day +21, 26 days after treatment (8 weeks), FIG. 11)"
SEQ ID NO:3: synthetic 18-mer GAAGGGCTTC TTCCTTAT specific for the 18-nucleotide target sequence of the L-6 bcr-abl junction (antisense GAAGGGCTTCTTCCTTAT; chemistry not given here),No bcr-abl transcript was detected,450 ± 42 colonies or clusters,180 ± 14 colonies or clusters,much lower than that arising in the presence of the mismatched bcr-abl oligomer,–,–,–,–,–,–,–,–
"SEQ ID NO:34: phosphorothioate sense sequence ATCAATAAGGAAGCCCTTCAGCG (23-mer b2a2 sense) (sense ATCAATAAGGAAGCCCTTCAGCG; all phosphorothioate, sugars by position and methylation of C not given here)",–,–,–,–,bcr-abl transcripts in each of the tissues analyzed except brain,readily detected in each tissue,Bcr-abl transcripts were detected,readily detectable,"macroscopic, microscopic and molecular evidence of an active leukemic disease process","in addition to spleen enlargement, the presence of distinct leukemic nodules in liver and kidneys",splenomegaly and leukemic metastases in the liver were detected,"numerous metastases in the liver (FIG. 11A), a few in the kidneys, and splenomegaly; also recorded: Numerous distinct leukemic nodules are visible in the liver"
